Structures are written as SMILES.

The conditions of series [1]: mice, IV, 10 mg/kg, plasma; cited from earlier work.
Series [2] has as its system Mfn2-null (i.e. expressing Mfn1 only) murine embryonic fibroblasts. Briefly: Mitochondrial elongation. It is filed as cell-based, mouse. The following applies: dose-response, compared with 2; result in words.
The nature of series [3]: Plasma and nerve tissue pharmacokinetics, single oral dose in non-fasted mice. The series is classed as in vivo. The note with it: male, CD-1, mouse, 50 mg/kg.
Series [4] relates to mitofusin mRNA expression. The note with it: transcriptional enhancer of mitofusin mRNA expression; cited from earlier work.

For `O=C(CCCCCc1ccccc1)N[C@H]1CC[C@H](O)CC1` [Compound 2], in series [1], the C0 is 50,600 ng/mL.
With `O=C(CCCCc1ccccc1)N[C@H]1CC[C@H](O)CC1` [Compound 3, N-((1r,4r)-4-hydroxycyclohexyl)-5-phenylpentanamide], the “mitofusin activation measured as ability to promote mitochondrial fusion (increased aspect ratio)” value in series [2] is “largely abrogated mitofusin activation”.
`O=C(CCCc1ccccc1)N[C@H]1CC[C@H](O)CC1` [Compound 4, N-((1r,4r)-4-hydroxycyclohexyl)-4-phenylbutanamide]: the “mitofusin activation measured as ability to promote mitochondrial fusion (increased aspect ratio)” value in series [2] is given as “largely abrogated mitofusin activation”.
For `O=C(N[C@H]1CC[C@H](O)CC1)C1CC1CCCc1ccccc1` (stereo partly shown) [Compound 5, N-(4-hydroxycyclohexyl)-2-(3-phenylpropyl)cyclopropane-1-carboxamide], in series [3] (plasma), the mean residence time MRT inf is 3.58 h and the Tmax is 0.5 h.
`O=C(N[C@H]1CC[C@H](O)CC1)[C@@H]1C[C@H]1CCCc1ccccc1` [Compound 5B, N-(4-hydroxycyclohexyl)-2-(3-phenylpropyl)cyclopropane-1-carboxamide]: in series [3] (brain and plasma), the Kp was determined as 0.394.
Turning to `Cc1oncc1C(=O)Nc1ccc(C(F)(F)F)cc1` [leflunomide], the effective concentrations in series [4] was 10 to 50 µM.

Source of the values: article PMC8632069 (Journal of medicinal chemistry, 2021).
